Data: patent US8138175B2, “Heterocyclyl compounds” (Hoffmann-La Roche Inc., priority 2008, dated 2012)

Target: T1, human chemokine receptor 2 isoform B (Homo sapiens, UniProt P41597)
T1 construct: host or cells: CHOK1-CCR2B-A5 (CHO-K1) cells
T1 sequence (P41597 1-360 isoform P41597-2): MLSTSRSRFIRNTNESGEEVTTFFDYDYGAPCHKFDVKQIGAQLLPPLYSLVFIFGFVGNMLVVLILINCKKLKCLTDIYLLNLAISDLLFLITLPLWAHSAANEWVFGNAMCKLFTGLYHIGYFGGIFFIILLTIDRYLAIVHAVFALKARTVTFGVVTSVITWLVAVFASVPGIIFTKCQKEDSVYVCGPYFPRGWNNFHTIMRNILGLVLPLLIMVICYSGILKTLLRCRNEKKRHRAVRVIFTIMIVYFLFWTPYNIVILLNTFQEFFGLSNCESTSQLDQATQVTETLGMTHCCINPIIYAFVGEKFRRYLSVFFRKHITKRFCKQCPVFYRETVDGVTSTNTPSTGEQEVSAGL
Experiment: Calcium mobilization assay
Format: cell-based
Settings: Ca mobilization assay for CCR2; CHOK1-CCR2B-A5 cells; antagonist activity against 20 nM MCP-1; FLIPR, Fluo-4
Description: Calcium Mobilization Assay
CHOK1-CCR2B-A5 cells (from Euroscreen) stably overexpressing the human chemokine receptor 2 isoform B were cultured in Nutrient Hams F12 medium supplemented with 5% FBS, 100 U/ml penicillin, 100 μg/ml streptomycin, 400 μg/ml G418 and 5 μg/ml puromycin.
For the assay cells were grown overnight in 384-well black clear flat bottom polystyrene plates (Costar) at 37° C. at 5% CO2. After washing with DMEM, 20 mM Hepes, 2.5 mM probenecid, 0.1% BSA (DMEM assay buffer) cells were loaded with 4 μM Fluo-4 in the same DMEM assay buffer for 2 hours at 30° C. Excess dye was removed and cells were washed with DMEM assay buffer. 384-well compound plates were prepared with DMEM assay buffer/0.5% dimethyl sulfoxide with or without various concentrations of test compounds. Usually compounds were tested for agonist and antagonist activity.
Test compounds were added to the assay plate and agonist activity was monitored as fluorescence for 80 seconds with a FLIPR (488 nm excitation; 510-570 nm emission; Molecular Devices). After 20-30 min. of incubation at 30° C., 20 nM MCP-1 (R&D; Roche) was added and fluorescence was monitored again for 80 seconds. Increases in intracellular calcium are reported as maximum fluorescence after agonist exposure minus basal fluorescence before exposure. Antagonist activity is indicated as inhibitor concentration required for 50% inhibition of specific calcium increases.

Row | Structure (SMILES) | IC50
1 | COC(=O)[C@H](CCN1CCC2(CC2)[C@H](O)C1)N1CCN(c2cccc(Cl)c2)CCC1=O [Example 3, (S)-2-[4-(3-Chloro-phenyl)-7-oxo-[1,4]diazepan-1-yl]-4-((S)-4-hydroxy-6-aza-spiro[2.5]oct-6-yl)-butyric acid methyl ester] | 0.13 µM
2 | COC(=O)[C@H](CCN1CCC2(CC2)[C@H](O)C1)N1CCN(c2ccc(OC(F)(F)F)cc2)CCC1=O [Example 11, (S)-4-((S)-4-Hydroxy-6-aza-spiro[2.5]oct-6-yl)-2-[7-oxo-4-(4-trifluoromethoxy-phenyl)-[1,4]diazepan-1-yl]-butyric acid methyl ester] | 0.4 µM
3 | COC(=O)[C@H](CCN1CCC2(CC2)[C@H](O)C1)N1CCN(c2cccc(C(F)(F)F)c2)CCC1=O [Example 5, (S)-4-((S)-4-Hydroxy-6-aza-spiro[2.5]oct-6-yl)-2-[7-oxo-4-(3-trifluoromethyl-phenyl)-[1,4]diazepan-1-yl]-butyric acid methyl ester] | 0.02 µM
4 | CC1C(=O)N(C(CO)CCN2CCC3(CC3)[C@H](O)C2)CCN1c1cccc(C(F)(F)F)c1 (stereo partly drawn) [Example 55, 1-[3-((S)-4-Hydroxy-6-aza-spiro[2.5]oct-6-yl)-1-hydroxymethyl-propyl]-3-methyl-4-(3-trifluoromethyl-phenyl)-piperazin-2-one] | 0.01 µM
5 | C[C@H]1C(=O)N(C[C@@H](O)CN2CCC3(CC3)[C@H](O)C2)CCN1c1ccc(Cl)c(Cl)c1 [Example 99, (S)-4-(3,4-dichloro-phenyl)-1-[(S)-2-hydroxy-3-((S)-4-hydroxy-6-aza-spiro[2.5]oct-6-yl)-propyl]-3-methyl-piperazin-2-one] | 0.008 µM
6 | C[C@H]1C(=O)N(CCCN2CCCCC2)CCN1c1ccc(Cl)c(Cl)c1 [Example 72, (S)-4-(3,4-Dichloro-phenyl)-3-methyl-1-(3-piperidin-1-yl-propyl)-piperazin-2-one] | 0.306 µM
7 | C[C@H]1C(=O)N(CCCN2CCCCC2)CCN1c1cccc(OC(F)(F)F)c1 [Example 42, (S)-3-Methyl-1-(3-piperidin-1-yl-propyl)-4-(3-trifluoromethoxy-phenyl)-piperazin-2-one] | 0.18 µM
8 | CC1C(=O)N(CCCN2CCC3(CC3)[C@H](O)C2)CCN1c1cccc(-c2ccccc2)c1 (stereo partly drawn) [Example 90, 4-Biphenyl-3-yl-1-[3-((S)-4-hydroxy-6-aza-spiro[2.5]oct-6-yl)-propyl]-3-methyl-piperazin-2-one] | 0.508 µM
9 | COC(=O)C(CCN1CCC2(CC2)[C@H](O)C1)N1CCN(c2cccc(C(F)(F)F)c2)C(C)C1=O (stereo partly drawn) [Example 54, 4-((S)-4-Hydroxy-6-aza-spiro[2.5]oct-6-yl)-2-[3-methyl-2-oxo-4-(3-trifluoromethyl-phenyl)-piperazin-1-yl]-butyric acid methyl ester] | 0.01 µM
10 | C[C@H]1C(=O)N(C[C@@H](O)CCN2CCC3(CC3)[C@H](O)C2)CCN1c1ccc(Cl)c(Cl)c1 [Example 105, (S)-4-(3,4-Dichloro-phenyl)-1-[(S)-2-hydroxy-4-((S)-4-hydroxy-6-aza-spiro[2.5]oct-6-yl)-butyl]-3-methyl-piperazin-2-one] | 0.027 µM
11 | C[C@H]1C(=O)N(CCCN2CCC3(CC3)[C@H](O)C2)CCN1c1ccc(C(F)(F)F)c(Cl)c1 [Example 83, (S)-4-(3-Chloro-4-trifluoromethyl-phenyl)-1-[3-((S)-4-hydroxy-6-aza-spiro[2.5]oct-6-yl)-propyl]-3-methyl-piperazin-2-one] | 0.002 µM
12 | CC1C(=O)N(CC2CCCN(C)C2)CCN1c1cccc(C(F)(F)F)c1 (stereo not shown) [Example 58, 3-Methyl-1-(1-methyl-piperidin-3-ylmethyl)-4-(3-trifluoromethyl-phenyl)-piperazin-2-one] | 0.68 µM
13 | C[C@H]1C(=O)N(CCCN2CCC3(CC3)[C@H](O)C2)CCN1c1cccc(OC(F)(F)F)c1 [Example 45, (S)-1-[3-((S)-4-Hydroxy-6-aza-spiro[2.5]oct-6-yl)-propyl]-3-methyl-4-(3-trifluoromethoxy-phenyl)-piperazin-2-one] | 0.01 µM
